What was measured:
Assay in all cases: KINOMEscan competition binding
Conditions in all cases: compound 10.0 µM; call rule not given here
CLK2 (human) = CLK2 (human) (UniProt P49760)
BLK (human) = BLK (human) (UniProt P51451)
STK11 (human) = STK11 (human) (UniProt Q15831)
FGR (human) = FGR (human) (UniProt P09769)
STK17B (human) = STK17B (human) (UniProt O94768)
ITK (human) = ITK (human) (UniProt Q08881)
STK33 (human) = STK33 (human) (UniProt Q9BYT3)
PDGFRA (human) = PDGFRA (human) (UniProt P16234)
STK10 (human) = STK10 (human) (UniProt O94804)
CSNK2A2 (human) = CSNK2A2 (human) (UniProt P19784)
TNK2 (human) = TNK2 (human) (UniProt Q07912)
STK17A (human) = STK17A (human) (UniProt Q9UEE5)
STK4 (human) = STK4 (human) (UniProt Q13043)
ACVR2A (human) = ACVR2A (human) (UniProt P27037)
MAPK12 (human) = MAPK12 (human) (UniProt P53778)
ABL1 (human) = ABL1 (human) (UniProt P00519)
KIT (human) = KIT (human) (UniProt P10721)
TNIK (human) = TNIK (human) (UniProt Q9UKE5)
MST4 (human) = MST4 (human) (UniProt Q9P289)
CSNK1A1L (human) = CSNK1A1L (human) (UniProt Q8N752)
BRAF (human) = BRAF (human) (UniProt P15056)
BTK (human) = BTK (human) (UniProt Q06187)
CSF1R (human) = CSF1R (human) (UniProt P07333)
CDK5 (human) = CDK5 (human) (UniProt Q00535)
STK38L (human) = STK38L (human) (UniProt Q9Y2H1)
MARK2 (human) = MARK2 (human) (UniProt Q7KZI7)
MAPK10 (human) = MAPK10 (human) (UniProt P53779)
PRKAA2 (human) = PRKAA2 (human) (UniProt P54646)
MAP4K3 (human) = MAP4K3 (human) (UniProt Q8IVH8)
GAK (human) = GAK (human) (UniProt O14976)
SRC (human) = SRC (human) (UniProt P12931)
ACVR2B (human) = ACVR2B (human) (UniProt Q13705)
EPHA8 (human) = EPHA8 (human) (UniProt P29322)
EPHA2 (human) = EPHA2 (human) (UniProt P29317)
BRSK2 (human) = BRSK2 (human) (UniProt Q8IWQ3)
PLK4 (human) = PLK4 (human) (UniProt O00444)
MERTK (human) = MERTK (human) (UniProt Q12866)
YES1 (human) = YES1 (human) (UniProt P07947)
EPHA3 (human) = EPHA3 (human) (UniProt P29320)
AURKA (human) = AURKA (human) (UniProt O14965)
Chain of AURKA (human) (O14965 whole entry, looked up): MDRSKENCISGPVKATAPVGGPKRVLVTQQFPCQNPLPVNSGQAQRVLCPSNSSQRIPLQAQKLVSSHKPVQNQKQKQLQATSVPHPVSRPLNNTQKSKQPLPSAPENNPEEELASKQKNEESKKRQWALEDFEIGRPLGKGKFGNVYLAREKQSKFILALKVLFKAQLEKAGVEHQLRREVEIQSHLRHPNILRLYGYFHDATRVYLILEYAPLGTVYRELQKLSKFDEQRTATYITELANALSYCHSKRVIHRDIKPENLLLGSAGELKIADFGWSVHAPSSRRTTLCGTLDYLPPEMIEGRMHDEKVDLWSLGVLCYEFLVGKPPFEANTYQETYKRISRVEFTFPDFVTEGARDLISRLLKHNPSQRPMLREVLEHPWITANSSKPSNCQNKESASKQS

Chain of STK11 (human) (Q15831 whole entry, looked up): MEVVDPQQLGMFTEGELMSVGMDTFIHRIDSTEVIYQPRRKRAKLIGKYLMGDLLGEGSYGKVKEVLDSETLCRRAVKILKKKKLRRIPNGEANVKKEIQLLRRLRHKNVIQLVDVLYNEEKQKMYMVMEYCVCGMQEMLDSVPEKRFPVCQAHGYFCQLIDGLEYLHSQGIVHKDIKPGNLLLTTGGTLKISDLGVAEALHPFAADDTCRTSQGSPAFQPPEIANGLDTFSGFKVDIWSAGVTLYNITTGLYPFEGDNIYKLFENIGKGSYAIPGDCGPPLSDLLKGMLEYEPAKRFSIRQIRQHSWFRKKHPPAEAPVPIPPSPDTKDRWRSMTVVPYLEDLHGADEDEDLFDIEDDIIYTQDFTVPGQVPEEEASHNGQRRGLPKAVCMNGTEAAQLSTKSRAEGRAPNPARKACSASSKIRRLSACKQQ
Chain of CSNK1A1L (human) (Q8N752 whole entry, looked up): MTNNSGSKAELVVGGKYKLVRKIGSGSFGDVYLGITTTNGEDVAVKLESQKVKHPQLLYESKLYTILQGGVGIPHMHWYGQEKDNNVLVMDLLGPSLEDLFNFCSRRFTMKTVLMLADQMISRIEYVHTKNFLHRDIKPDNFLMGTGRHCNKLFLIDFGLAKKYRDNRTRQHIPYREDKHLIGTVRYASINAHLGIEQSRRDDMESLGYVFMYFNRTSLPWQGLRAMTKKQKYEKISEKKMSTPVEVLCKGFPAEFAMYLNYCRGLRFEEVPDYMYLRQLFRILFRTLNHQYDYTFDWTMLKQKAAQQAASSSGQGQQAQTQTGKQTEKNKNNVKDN
Chain of FGR (human) (P09769 whole entry, looked up): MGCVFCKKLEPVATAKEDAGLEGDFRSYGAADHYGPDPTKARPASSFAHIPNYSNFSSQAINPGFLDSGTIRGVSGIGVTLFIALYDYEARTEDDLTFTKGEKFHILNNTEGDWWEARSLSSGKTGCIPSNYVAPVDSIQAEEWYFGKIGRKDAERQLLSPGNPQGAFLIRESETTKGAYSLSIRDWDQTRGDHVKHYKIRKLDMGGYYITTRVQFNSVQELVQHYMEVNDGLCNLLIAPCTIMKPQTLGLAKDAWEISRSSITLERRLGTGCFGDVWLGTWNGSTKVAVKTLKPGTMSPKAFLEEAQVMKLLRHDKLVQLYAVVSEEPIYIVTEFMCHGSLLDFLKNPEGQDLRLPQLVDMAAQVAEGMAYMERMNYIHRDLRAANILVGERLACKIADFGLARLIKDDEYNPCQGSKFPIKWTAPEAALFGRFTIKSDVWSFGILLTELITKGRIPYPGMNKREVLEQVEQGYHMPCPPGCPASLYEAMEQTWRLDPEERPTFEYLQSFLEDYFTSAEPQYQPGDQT
Chain of TNIK (human) (Q9UKE5 whole entry, looked up): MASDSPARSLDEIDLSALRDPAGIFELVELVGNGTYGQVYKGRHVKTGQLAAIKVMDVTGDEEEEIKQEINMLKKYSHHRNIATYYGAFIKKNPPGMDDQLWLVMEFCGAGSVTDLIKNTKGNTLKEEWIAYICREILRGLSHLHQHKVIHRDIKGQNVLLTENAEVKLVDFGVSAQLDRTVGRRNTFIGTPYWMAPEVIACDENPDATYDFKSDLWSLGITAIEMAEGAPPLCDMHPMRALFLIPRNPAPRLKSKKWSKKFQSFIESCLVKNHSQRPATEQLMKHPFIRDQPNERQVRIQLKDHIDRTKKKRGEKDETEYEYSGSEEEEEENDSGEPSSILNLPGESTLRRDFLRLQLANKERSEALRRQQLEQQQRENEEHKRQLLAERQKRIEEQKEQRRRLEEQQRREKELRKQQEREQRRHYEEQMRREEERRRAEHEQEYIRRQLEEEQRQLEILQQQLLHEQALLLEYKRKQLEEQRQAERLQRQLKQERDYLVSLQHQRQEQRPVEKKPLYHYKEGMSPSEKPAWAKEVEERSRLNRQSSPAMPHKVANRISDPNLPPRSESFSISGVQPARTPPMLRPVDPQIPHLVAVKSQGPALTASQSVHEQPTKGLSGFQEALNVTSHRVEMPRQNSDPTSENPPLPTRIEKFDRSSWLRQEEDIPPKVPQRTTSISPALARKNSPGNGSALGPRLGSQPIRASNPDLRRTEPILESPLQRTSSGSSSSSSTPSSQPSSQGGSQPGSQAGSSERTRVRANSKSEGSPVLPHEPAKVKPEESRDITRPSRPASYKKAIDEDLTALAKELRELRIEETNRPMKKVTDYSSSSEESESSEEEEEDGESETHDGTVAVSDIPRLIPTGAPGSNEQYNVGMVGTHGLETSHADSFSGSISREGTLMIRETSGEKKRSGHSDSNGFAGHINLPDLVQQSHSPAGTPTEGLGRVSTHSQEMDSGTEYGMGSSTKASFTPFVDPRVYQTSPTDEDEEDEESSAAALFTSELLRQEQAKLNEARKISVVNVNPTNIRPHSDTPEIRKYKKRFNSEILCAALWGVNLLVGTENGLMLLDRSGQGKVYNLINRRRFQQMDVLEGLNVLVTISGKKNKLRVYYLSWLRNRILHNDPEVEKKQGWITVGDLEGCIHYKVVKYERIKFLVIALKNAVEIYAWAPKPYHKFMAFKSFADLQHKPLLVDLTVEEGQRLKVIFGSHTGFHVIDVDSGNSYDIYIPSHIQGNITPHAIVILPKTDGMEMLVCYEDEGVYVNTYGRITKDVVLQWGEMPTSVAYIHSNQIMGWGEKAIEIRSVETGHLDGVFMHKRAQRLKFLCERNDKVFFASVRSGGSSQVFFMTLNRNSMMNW
Chain of STK17B (human) (O94768 whole entry, looked up): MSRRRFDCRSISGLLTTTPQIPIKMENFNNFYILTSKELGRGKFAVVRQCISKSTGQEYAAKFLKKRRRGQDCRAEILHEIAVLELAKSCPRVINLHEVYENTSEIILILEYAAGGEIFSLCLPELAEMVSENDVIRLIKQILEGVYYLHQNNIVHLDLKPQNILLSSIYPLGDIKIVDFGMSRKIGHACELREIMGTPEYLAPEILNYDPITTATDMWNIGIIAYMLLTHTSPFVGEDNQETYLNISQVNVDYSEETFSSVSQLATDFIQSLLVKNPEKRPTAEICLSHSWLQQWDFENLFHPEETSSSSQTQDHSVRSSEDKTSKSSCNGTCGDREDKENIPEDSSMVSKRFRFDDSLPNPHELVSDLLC
Chain of ACVR2B (human) (Q13705 whole entry, looked up): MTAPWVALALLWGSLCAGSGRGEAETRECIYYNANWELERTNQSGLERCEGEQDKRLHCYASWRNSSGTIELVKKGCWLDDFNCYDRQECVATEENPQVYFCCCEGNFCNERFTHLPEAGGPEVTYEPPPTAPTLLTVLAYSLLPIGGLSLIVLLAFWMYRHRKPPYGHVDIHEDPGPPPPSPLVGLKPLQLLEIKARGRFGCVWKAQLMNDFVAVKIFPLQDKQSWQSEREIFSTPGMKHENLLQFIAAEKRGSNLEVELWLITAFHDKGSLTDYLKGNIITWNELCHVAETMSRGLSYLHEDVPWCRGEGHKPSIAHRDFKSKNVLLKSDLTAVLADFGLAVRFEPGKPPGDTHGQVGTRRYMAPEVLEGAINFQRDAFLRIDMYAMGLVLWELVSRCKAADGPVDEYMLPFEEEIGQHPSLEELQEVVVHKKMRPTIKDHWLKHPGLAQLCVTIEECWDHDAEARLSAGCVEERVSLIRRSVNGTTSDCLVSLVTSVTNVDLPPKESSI
Chain of CLK2 (human) (P49760 whole entry, looked up): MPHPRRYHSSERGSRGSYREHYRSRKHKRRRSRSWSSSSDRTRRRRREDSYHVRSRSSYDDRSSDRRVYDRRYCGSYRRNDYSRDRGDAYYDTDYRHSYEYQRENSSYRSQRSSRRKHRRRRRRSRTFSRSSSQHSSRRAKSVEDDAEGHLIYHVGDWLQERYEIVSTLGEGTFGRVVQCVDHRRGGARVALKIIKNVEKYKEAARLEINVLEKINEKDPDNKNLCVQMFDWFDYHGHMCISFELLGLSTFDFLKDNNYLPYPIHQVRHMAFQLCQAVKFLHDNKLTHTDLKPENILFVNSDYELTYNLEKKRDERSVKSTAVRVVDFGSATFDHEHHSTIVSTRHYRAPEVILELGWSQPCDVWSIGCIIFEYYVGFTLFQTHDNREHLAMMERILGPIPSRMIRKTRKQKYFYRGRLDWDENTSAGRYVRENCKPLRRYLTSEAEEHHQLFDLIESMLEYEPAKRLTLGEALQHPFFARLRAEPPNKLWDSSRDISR
Chain of MAPK10 (human) (P53779 whole entry, looked up): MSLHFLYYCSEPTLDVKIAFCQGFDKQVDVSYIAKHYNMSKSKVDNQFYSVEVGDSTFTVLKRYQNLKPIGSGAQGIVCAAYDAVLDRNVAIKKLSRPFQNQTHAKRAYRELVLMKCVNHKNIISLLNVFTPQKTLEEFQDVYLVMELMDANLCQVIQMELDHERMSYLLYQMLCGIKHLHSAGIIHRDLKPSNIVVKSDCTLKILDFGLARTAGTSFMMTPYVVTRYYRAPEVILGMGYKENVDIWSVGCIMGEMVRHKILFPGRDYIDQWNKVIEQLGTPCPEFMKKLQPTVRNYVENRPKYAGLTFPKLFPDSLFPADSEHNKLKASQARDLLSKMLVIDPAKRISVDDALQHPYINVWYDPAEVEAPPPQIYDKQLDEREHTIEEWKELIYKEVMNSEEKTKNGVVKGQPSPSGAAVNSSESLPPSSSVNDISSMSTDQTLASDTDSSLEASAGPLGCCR

| kinase still bound, per cent of control (CLK2 (human)) | kinase still bound, per cent of control (STK11 (human)) | kinase still bound, per cent of control (FGR (human)) | kinase still bound, per cent of control (STK17B (human)) | kinase still bound, per cent of control (ITK (human)) | kinase still bound, per cent of control (STK33 (human)) | kinase still bound, per cent of control (PDGFRA (human)) | kinase still bound, per cent of control (STK10 (human)) | kinase still bound, per cent of control (CSNK2A2 (human)) | kinase still bound, per cent of control (TNK2 (human)) | kinase still bound, per cent of control (STK17A (human)) | kinase still bound, per cent of control (STK4 (human)) | kinase still bound, per cent of control (ACVR2A (human)) | kinase still bound, per cent of control (ABL1 (human)) | kinase still bound, per cent of control (TNIK (human)) | kinase still bound, per cent of control (CSNK1A1L (human)) | kinase still bound, per cent of control (BRAF (human)) | kinase still bound, per cent of control (BTK (human)) | kinase still bound, per cent of control (CDK5 (human)) | kinase still bound, per cent of control (STK38L (human)) | other results | Structure (SMILES) |
| --- | --- | --- | --- | --- | --- | --- | --- | --- | --- | --- | --- | --- | --- | --- | --- | --- | --- | --- | --- | --- | --- |
| 0% | 1% | 0.1% | 0.1% | 0.1% | 0% | 0.8% | 0% | 0% | 0% | 0% | 0% | 22.7% | 0.6% | 0% | no effect (inactive) | no effect (inactive) | 0% | 16.8% | 0% | kinase still bound, per cent of control (BLK (human)): 0%; kinase still bound, per cent of control (MAPK12 (human)): no effect (inactive); kinase still bound, per cent of control (KIT (human)): 0.1%; kinase still bound, per cent of control (MST4 (human)): 17.2%; kinase still bound, per cent of control (CSF1R (human)): 0%; kinase still bound, per cent of control (MARK2 (human)): 0.3%; kinase still bound, per cent of control (MAPK10 (human)): 0%; kinase still bound, per cent of control (PRKAA2 (human)): 0%; kinase still bound, per cent of control (MAP4K3 (human)): 0.1%; kinase still bound, per cent of control (GAK (human)): 2.7%; kinase still bound, per cent of control (SRC (human)): 0%; kinase still bound, per cent of control (ACVR2B (human)): 2.4%; kinase still bound, per cent of control (EPHA8 (human)): 0.4%; kinase still bound, per cent of control (EPHA2 (human)): 1.5%; kinase still bound, per cent of control (BRSK2 (human)): 0%; kinase still bound, per cent of control (PLK4 (human)): 0%; kinase still bound, per cent of control (MERTK (human)): 0%; kinase still bound, per cent of control (YES1 (human)): 0%; kinase still bound, per cent of control (EPHA3 (human)): 0%; kinase still bound, per cent of control (AURKA (human)): 0% | CCS(=O)(=O)Nc1ccc2c(c1)[C@H](/C(=N/c1ccc(CN3CCCCC3)cc1)c1ccccc1)C(=O)N2 |
| no effect (inactive) | no effect (inactive) | no effect (inactive) | no effect (inactive) | no effect (inactive) | no effect (inactive) | no effect (inactive) | no effect (inactive) | no effect (inactive) | no effect (inactive) | no effect (inactive) | no effect (inactive) | no effect (inactive) | no effect (inactive) | no effect (inactive) | no effect (inactive) | no effect (inactive) | no effect (inactive) | no effect (inactive) | no effect (inactive) | kinase still bound, per cent of control (MARK2 (human)): no effect (inactive); kinase still bound, per cent of control (MAPK10 (human)): no effect (inactive); kinase still bound, per cent of control (PRKAA2 (human)): no effect (inactive); kinase still bound, per cent of control (MAP4K3 (human)): no effect (inactive); kinase still bound, per cent of control (SRC (human)): no effect (inactive); kinase still bound, per cent of control (ACVR2B (human)): no effect (inactive); kinase still bound, per cent of control (EPHA8 (human)): no effect (inactive); kinase still bound, per cent of control (EPHA2 (human)): no effect (inactive); kinase still bound, per cent of control (BRSK2 (human)): no effect (inactive); kinase still bound, per cent of control (PLK4 (human)): no effect (inactive); kinase still bound, per cent of control (MERTK (human)): no effect (inactive); kinase still bound, per cent of control (YES1 (human)): no effect (inactive); kinase still bound, per cent of control (EPHA3 (human)): no effect (inactive); kinase still bound, per cent of control (AURKA (human)): no effect (inactive) | NC(=O)c1ccc(-c2cc(C(N)=O)c(N)c(-c3ccc(S(N)(=O)=O)cc3)c2)cc1 |
